# Measured values from ChEMBL document CHEMBL1201862, “PubChem BioAssay data set” (2004).
#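 Protocol summary: plate cells (96-well), add compound at 5 concentrations, incubate 48 h, interpolate endpoints linearly. Abbreviation: GI50, concentration required for 50% inhibition of growth.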 The source made the active and inactive calls. Rule as the data show it: active = GI50 up to about 1.1 µM and inactive = higher.
# Tests used:
# Assay in all cases: NCI tumour cell line growth inhibition, 48 h
# [1] = tested on: 786-0
# [2] = tested on: A498
# [3] = tested on: A549
# [4] = tested on: ACHN
# [5] = tested on: BT-549
# [6] = tested on: CAKI-1
# [7] = tested on: CCRF-CEM
# [8] = tested on: COLO 205
# [9] = tested on: EKVX
# [10] = tested on: HCC 2998
# [11] = tested on: HCT-15
# [12] = tested on: HOP-92
# [13] = tested on: HT-29
# [14] = tested on: Hs-578T
# [15] = tested on: IGROV-1
# [16] = tested on: K562
# [17] = tested on: KM12
# [18] = tested on: LOX IMVI
# [19] = tested on: M14
# [20] = tested on: MCF7
# [21] = tested on: MDA-MB-231
# [22] = tested on: MDA-MB-435
# [23] = tested on: MDA-N
# [24] = tested on: MOLT-4
# [25] = tested on: Malme-3M
# [26] = tested on: NCI-H226
# [27] = tested on: NCI-H23
# [28] = tested on: NCI-H460
# [29] = tested on: NCI-H522
# [30] = tested on: NCI/ADR-RES
# [31] = tested on: OVCAR-3
# [32] = tested on: OVCAR-4
# [33] = tested on: OVCAR-5
# [34] = tested on: OVCAR-8
# [35] = tested on: PC-3
# [36] = tested on: RPMI-8226
# [37] = tested on: RXF 393
# [38] = tested on: SF-268
# [39] = tested on: SF-295
# [40] = tested on: SK-MEL-28
# [41] = tested on: SK-MEL-2
# [42] = tested on: SK-MEL-5
# [43] = tested on: SK-OV-3
# [44] = tested on: SNB-19
# [45] = tested on: SNB-75
# [46] = tested on: SR
# [47] = tested on: SW-620
# [48] = tested on: T47D
# [49] = tested on: TK-10
# [50] = tested on: U-251
# [51] = tested on: UACC-257
# [52] = tested on: UACC-62
# [53] = tested on: UO-31
# [54] = tested on: DU-145
# [55] = tested on: HCT-116
# [56] = tested on: HOP-62
# [57] = tested on: SN12C
smiles,measurement,setting,value
CCC/C=C/c1cc2c(cc1O)CC[C@@H]1[C@@H]2CC[C@]2(C)[C@@H](O)CC[C@@H]12,GI50,[1],15.2 µM (inactive)
same,GI50,[2],17.2 µM (inactive)
same,GI50,[3],18.1 µM (inactive)
same,GI50,[4],16.7 µM (inactive)
same,GI50,[5],18.8 µM (inactive)
same,GI50,[6],21.2 µM (inactive)
same,GI50,[7],12 µM (inactive)
same,GI50,[8],19.1 µM (inactive)
same,GI50,[9],19.2 µM (inactive)
same,GI50,[10],21.5 µM (inactive)
same,GI50,[11],18.6 µM
same,GI50,[12],20.3 µM (inactive)
same,GI50,[13],18.4 µM (inactive)
same,GI50,[14],21.7 µM (inactive)
same,GI50,[15],21.1 µM (inactive)
same,GI50,[16],16.8 µM (inactive)
same,GI50,[17],17.3 µM (inactive)
same,GI50,[18],14.8 µM (inactive)
same,GI50,[19],20.3 µM (inactive)
same,GI50,[20],25.5 µM (inactive)
same,GI50,[21],15.5 µM (inactive)
same,GI50,[22],15.7 µM (inactive)
same,GI50,[23],15.1 µM (inactive)
same,GI50,[24],18.3 µM (inactive)
same,GI50,[25],16.5 µM (inactive)
same,GI50,[26],24.7 µM (inactive)
same,GI50,[27],17.5 µM (inactive)
same,GI50,[28],17.4 µM (inactive)
same,GI50,[29],17.3 µM (inactive)
same,GI50,[30],18.5 µM (inactive)
same,GI50,[31],19.2 µM (inactive)
same,GI50,[32],19 µM (inactive)
same,GI50,[33],18.4 µM (inactive)
same,GI50,[34],22.9 µM (inactive)
same,GI50,[35],15.8 µM (inactive)
same,GI50,[36],14 µM (inactive)
same,GI50,[37],16.3 µM (inactive)
same,GI50,[38],18.4 µM (inactive)
same,GI50,[39],17.6 µM (inactive)
same,GI50,[40],19.3 µM (inactive)
same,GI50,[41],16.6 µM (inactive)
same,GI50,[42],16.4 µM (inactive)
same,GI50,[43],26.8 µM (inactive)
same,GI50,[44],23.6 µM (inactive)
same,GI50,[45],16.4 µM (inactive)
same,GI50,[46],15.4 µM (inactive)
same,GI50,[47],20.6 µM (inactive)
same,GI50,[48],24.9 µM (inactive)
same,GI50,[49],20.7 µM (inactive)
same,GI50,[50],16.9 µM (inactive)
same,GI50,[51],15.8 µM (inactive)
same,GI50,[52],14.5 µM (inactive)
same,GI50,[53],16.3 µM (inactive)
Cc1ccc(S(=O)(=O)NC(C(=O)O)C(C)C)cc1 (stereo unspecified),GI50,[1],> 100 µM (inactive)
same,GI50,[2],> 100 µM (inactive)
same,GI50,[3],> 100 µM (inactive)
same,GI50,[4],> 100 µM (inactive)
same,GI50,[5],> 100 µM (inactive)
same,GI50,[6],> 100 µM (inactive)
same,GI50,[7],> 100 µM (inactive)
same,GI50,[54],> 100 µM (inactive)
same,GI50,[9],> 100 µM (inactive)
same,GI50,[10],> 100 µM (inactive)
same,GI50,[55],> 100 µM (inactive)
same,GI50,[11],> 100 µM
same,GI50,[56],> 100 µM (inactive)
same,GI50,[12],> 100 µM (inactive)
same,GI50,[13],> 100 µM (inactive)
same,GI50,[14],> 100 µM (inactive)
same,GI50,[15],> 100 µM (inactive)
same,GI50,[16],> 100 µM (inactive)
same,GI50,[17],> 100 µM (inactive)
same,GI50,[18],> 100 µM (inactive)
same,GI50,[19],> 100 µM (inactive)
same,GI50,[21],> 100 µM (inactive)
same,GI50,[22],> 100 µM (inactive)
same,GI50,[23],> 100 µM (inactive)
same,GI50,[24],> 100 µM (inactive)
same,GI50,[25],> 100 µM (inactive)
same,GI50,[26],> 100 µM (inactive)
same,GI50,[27],> 100 µM (inactive)
same,GI50,[28],> 100 µM (inactive)
same,GI50,[29],> 100 µM (inactive)
same,GI50,[30],> 100 µM (inactive)
same,GI50,[31],> 100 µM (inactive)
same,GI50,[32],> 100 µM (inactive)
same,GI50,[33],> 100 µM (inactive)
same,GI50,[34],> 100 µM (inactive)
same,GI50,[35],> 100 µM (inactive)
same,GI50,[37],> 100 µM (inactive)
same,GI50,[38],> 100 µM (inactive)
same,GI50,[39],> 100 µM (inactive)
same,GI50,[40],> 100 µM (inactive)
same,GI50,[41],> 100 µM (inactive)
same,GI50,[42],> 100 µM (inactive)
same,GI50,[57],> 100 µM (inactive)
same,GI50,[44],> 100 µM (inactive)
same,GI50,[45],> 100 µM (inactive)
same,GI50,[46],> 100 µM (inactive)
same,GI50,[47],> 100 µM (inactive)
same,GI50,[48],> 100 µM (inactive)
same,GI50,[49],> 100 µM (inactive)
same,GI50,[50],> 100 µM (inactive)
same,GI50,[51],> 100 µM (inactive)
same,GI50,[52],> 100 µM (inactive)
same,GI50,[53],> 100 µM (inactive)
